Measurements published in patent publication US20040037843A1, “Inducing cellular immune responses to prostate cancer antigens using peptide and nucleic acid compositions” (priority 2003, published 2004).

Assays:
Test in all cases: HLA class I binding assay, purified HLA, inhibition of 125I-labelled probe peptide
[1] = molecular target: HLA-A*0201 (Homo sapiens, UniProt P04439, D140Y/D185E/D98H/E176V/E277Q/G131W/G231S/I119V/I121R/I166T/I218V/L300P/L318F/N151K/N90K/P208A/P217A/Q86G/Q94H/R138H/R169H/T345S); conditions: A*[…], A2 supermotif cross-reactive binding data
[2] = molecular target: HLA-A*0202 (Homo sapiens, UniProt P04439, D140Y/D185E/D98H/E176V/E277Q/G131W/G231S/I119L/I121R/I166T/I218V/L180W/L300P/L318F/N151K/N90K/P208A/P217A/Q67R/Q86G/Q94H/R138H/R169H/T345S); conditions: A2 supermotif cross-reactive binding data
[3] = molecular target: HLA-A*0203 (Homo sapiens, UniProt P04439, A173T/D140Y/D185E/D98H/E277Q/G131W/G231S/I119V/I121R/I166T/I218V/L180W/L300P/L318F/N151K/N90K/P208A/P217A/Q86G/Q94H/R138H/R169H/T345S); conditions: A*[…], A2 supermotif cross-reactive binding data
[4] = molecular target: HLA-A*0206 (Homo sapiens, UniProt P04439, D140Y/D185E/D98H/E176V/E277Q/F33Y/G131W/G231S/I119V/I121R/I166T/I218V/L300P/L318F/N151K/N90K/P208A/P217A/Q86G/Q94H/R138H/R169H/T345S); conditions: A*[…], A2 supermotif cross-reactive binding data
[5] = molecular target: HLA-A*6802 (Homo sapiens, UniProt P04439, A269V/D140Y/D185E/E176V/E277Q/E87N/F33Y/G231S/I121R/I166T/I218V/L180W/L300P/L318F/N151K/P208A/P217A/Q86R/R138H/R169H/S129P/T345S/V36M); conditions: A2 supermotif cross-reactive binding data; read-out: A*6802 nM

Row | IC50 [1] | IC50 [2] | IC50 [3] | IC50 [4] | IC50 [5] | Compound
1 | 500 nM | 5.2 nM | 63 nM | 9250 nM |  | CC(C)C[C@H](NC(=O)[C@H](CO)NC(=O)[C@H](CC(C)C)NC(=O)[C@H](CO)NC(=O)[C@H](C)NC(=O)[C@H](C)NC(=O)[C@H](CCCNC(=N)N)NC(=O)[C@H](C)NC(=O)[C@H](CC(C)C)NC(=O)[C@@H](N)CC(C)C)C(=O)O [Peptide 20.0203]
2 | 26 nM | 4.9 nM | 40 nM | 712 nM | 229 nM | CC[C@H](C)[C@H](NC(=O)[C@H](Cc1c[nH]c2ccccc12)NC(=O)[C@@H](NC(=O)[C@@H](NC(=O)[C@H](CO)NC(=O)[C@H](CC(C)C)NC(=O)[C@@H](N)[C@@H](C)O)C(C)C)[C@@H](C)O)C(=O)NCC(=O)N[C@H](C(=O)O)C(C)C [Peptide 60.0217]
3 | 69 nM | 518 nM | 53 nM | 128 nM | > 10000 nM | CSCC[C@H](NC(=O)[C@H](Cc1ccccc1)NC(=O)[C@H](CCCCN)NC(=O)[C@@H](NC(=O)[C@@H](NC(=O)[C@@H](N)CCCCN)C(C)C)[C@@H](C)O)C(=O)N[C@@H](CC(C)C)C(=O)N[C@@H](CS)C(=O)N[C@H](C(=O)O)C(C)C [Peptide 60.0220]
4 | 109 nM | 10 nM | 21 nM | 378 nM |  | CC(C)C[C@H](NC(=O)[C@H](CO)NC(=O)[C@H](C)NC(=O)[C@H](C)NC(=O)[C@H](CCCNC(=N)N)NC(=O)[C@H](C)NC(=O)[C@H](CC(C)C)NC(=O)[C@@H](N)CC(C)C)C(=O)N[C@@H](CO)C(=O)N[C@H](C(=O)O)C(C)C [Peptide 63.0031]
5 | 250 nM | 94 nM |  | 451 nM | 2290 nM | CC[C@H](C)[C@H](NC(=O)[C@H](CO)NC(=O)[C@@H](NC(=O)CN)C(C)C)C(=O)N[C@@H](Cc1c[nH]c2ccccc12)C(=O)N[C@@H](CC(N)=O)C(=O)N1CCC[C@H]1C(=O)N[C@H](C(=O)N[C@@H](CC(C)C)C(=O)N[C@H](C(=O)O)C(C)C)[C@@H](C)CC [Peptide 63.0041]
6 | 238 nM | 47 nM | 19 nM | 336 nM |  | CC[C@H](C)[C@H](NC(=O)[C@@H]1CCCN1C(=O)[C@H](CCC(N)=O)NC(=O)[C@H](Cc1c[nH]c2ccccc12)NC(=O)[C@H](CC(C)C)NC(=O)[C@H](CC(C)C)NC(=O)[C@H](CC(C)C)NC(=O)[C@@H]1CCCN1)C(=O)N1CCC[C@H]1C(=O)N[C@H](C(=O)O)C(C)C [Peptide 63.0042]
7 | 263 nM | 9.1 nM | 7.1 nM |  | 1820 nM | CC(C)C[C@H](NC(=O)[C@H](CCC(=O)O)NC(=O)[C@H](CCCNC(=N)N)NC(=O)[C@H](CC(C)C)NC(=O)[C@@H](N)CCCCN)C(=O)N[C@@H](CO)C(=O)N[C@@H](CCC(=O)O)C(=O)N[C@@H](CC(C)C)C(=O)N[C@@H](CO)C(=O)N[C@H](C(=O)O)C(C)C [Peptide 63.0048]
8 | 8.1 nM | 3.1 nM | 5.3 nM | 80 nM |  | CC(C)C[C@H](NC(=O)[C@H](CO)NC(=O)[C@H](CC(C)C)NC(=O)[C@H](CO)NC(=O)[C@H](C)NC(=O)[C@H](C)NC(=O)[C@H](CCCNC(=N)N)NC(=O)[C@H](C)NC(=O)[C@H](CC(C)C)NC(=O)[C@H](CC(C)C)NC(=O)[C@@H](N)CC(C)C)C(=O)O [Peptide 63.0136]
9 | 14 nM | 17 nM | 2.8 nM |  | 364 nM | CC(C)C[C@H](NC(=O)[C@H](Cc1c[nH]c2ccccc12)NC(=O)[C@H](Cc1ccccc1)NC(=O)[C@H](Cc1ccccc1)NC(=O)[C@H](CC(C)C)NC(=O)[C@H](CC(C)C)NC(=O)[C@@H](N)Cc1ccccc1)C(=O)N[C@@H](CC(=O)O)C(=O)N[C@@H](CCCNC(=N)N)C(=O)N[C@@H](CO)C(=O)N[C@H](C(=O)O)C(C)C [Peptide 63.0138]
10 | 6.9 nM | 8.1 nM | 21 nM |  | > 10000 nM | CC(C)C[C@H](NC(=O)[C@@H](NC(=O)[C@@H](NC(=O)[C@H](Cc1ccccc1)NC(=O)[C@H](CCCCN)NC(=O)[C@H](CC(C)C)NC(=O)[C@H](CCC(=O)O)NC(=O)[C@H](CCCCN)NC(=O)[C@H](C)NC(=O)[C@H](CC(C)C)NC(=O)[C@@H](N)C(C)C)C(C)C)[C@@H](C)O)C(=O)O [Peptide 63.0142]
11 | 89 nM | 88 nM | 71 nM | 336 nM | > 10000 nM | CC(C)C[C@H](NC(=O)[C@H](Cc1ccccc1)NC(=O)[C@@H](NC(=O)[C@@H](N)C(C)C)C(C)C)C(=O)N[C@H](C(=O)N[C@@H](CC(C)C)C(=O)N[C@@H](CO)C(=O)N[C@H](C(=O)N[C@H](C(=O)N[C@@H](Cc1c[nH]c2ccccc12)C(=O)N[C@H](C(=O)O)C(C)C)[C@@H](C)O)C(C)C)[C@@H](C)O [Peptide 63.0185]
12 | 98 nM | 36 nM | 91 nM | > 10000 nM | 30 nM | CC[C@H](C)[C@H](NC(=O)[C@H](Cc1ccccc1)NC(=O)[C@H](C)NC(=O)[C@H](CCCNC(=N)N)NC(=O)[C@H](CCC(=O)O)NC(=O)[C@H](CC(C)C)NC(=O)[C@H](Cc1ccccc1)NC(=O)[C@H](CCSC)NC(=O)[C@H](CC(C)C)NC(=O)[C@@H](N)CCC(N)=O)C(=O)O [Peptide 1126.16]
13 | 42 nM | 2 nM |  | 112 nM | 964 nM | CC(C)C[C@H](NC(=O)[C@H](CC(=O)O)NC(=O)CNC(=O)[C@H](CCC(=O)O)NC(=O)[C@@H]1CCCN1C(=O)[C@H](CC(C)C)NC(=O)CN)C(=O)N[C@H](C(=O)N[C@@H](Cc1ccc(O)cc1)C(=O)N[C@H](C(=O)O)C(C)C)C(C)C [Peptide 1389.22]
14 | 24 nM | 17 nM | 9.1 nM | 264 nM | > 10000 nM | CC(C)C[C@H](NC(=O)[C@H](C)N)C(=O)N[C@@H](CO)C(=O)N[C@H](C(=O)NCC(=O)N[C@@H](CS)C(=O)N[C@H](C(=O)NCC(=O)N[C@H](C(=O)O)C(C)C)[C@@H](C)O)C(C)C [Peptide 1418.15]
15 | 119 nM | 102 nM | 278 nM | 176 nM | > 10000 nM | CSCC[C@H](NC(=O)[C@H](CC(=O)O)NC(=O)[C@H](CC(N)=O)NC(=O)[C@H](CO)NC(=O)[C@H](CC(C)C)NC(=O)[C@H](CC(C)C)NC(=O)[C@@H](N)Cc1c[nH]cn1)C(=O)N[C@@H](CS)C(=O)N[C@H](C(=O)O)C(C)C [Peptide 1418.20]
16 | 53 nM | 27 nM | 31 nM | 34 nM | 6670 nM | CSCC[C@H](NC(=O)[C@H](Cc1ccccc1)NC(=O)[C@H](CCC(=O)O)NC(=O)[C@@H](NC(=O)[C@@H](NC(=O)[C@@H](N)CCCCN)C(C)C)[C@@H](C)O)C(=O)N[C@@H](CC(C)C)C(=O)N[C@@H](CS)C(=O)N[C@H](C(=O)O)C(C)C [Peptide 1418.21]
17 | 238 nM | 27 nM | 44 nM | 82 nM | 258 nM | CC[C@H](C)[C@H](NC(=O)[C@H](CC(=O)O)NC(=O)[C@H](Cc1ccccc1)NC(=O)[C@@H](NC(=O)[C@H](C)N)[C@@H](C)O)C(=O)N[C@@H](CCC(=O)O)C(=O)N[C@@H](CO)C(=O)N[C@@H](CCCCN)C(=O)N[C@H](C(=O)O)C(C)C [Peptide 1418.30]
18 | 36 nM | 33 nM | 36 nM |  | > 10000 nM | CC[C@H](C)[C@H](N)C(=O)N[C@@H](CC(C)C)C(=O)N[C@@H](CC(C)C)C(=O)N[C@@H](CO)C(=O)N[C@H](C(=O)NCC(=O)N[C@@H](CS)C(=O)N[C@H](C(=O)NCC(=O)N[C@@H](C)C(=O)N[C@H](C(=O)O)C(C)C)[C@@H](C)O)C(C)C [Peptide 1418.57]
19 |  | 159 nM | 63 nM | 2850 nM | > 10000 nM | CC[C@H](C)[C@H](NC(=O)[C@H](Cc1c[nH]c2ccccc12)NC(=O)[C@@H](NC(=O)[C@@H](NC(=O)[C@H](CO)NC(=O)[C@H](CC(C)C)NC(=O)[C@@H](NC(=O)[C@H](CC(C)C)NC(=O)[C@H](Cc1ccccc1)NC(=O)[C@@H](NC(=O)[C@@H](N)C(C)C)C(C)C)[C@@H](C)O)C(C)C)[C@@H](C)O)C(=O)O [Peptide 1419.25]
20 |  | 1.4 nM | 5.6 nM | 381 nM | 6150 nM | CC(C)C[C@H](NC(=O)[C@@H](N)Cc1ccccc1)C(=O)N[C@@H](CC(N)=O)C(=O)N[C@@H](CCC(=O)O)C(=O)N[C@@H](CO)C(=O)N[C@@H](Cc1ccc(O)cc1)C(=O)N[C@@H](CCCCN)C(=O)N[C@@H](Cc1c[nH]cn1)C(=O)N[C@@H](CCC(=O)O)C(=O)N[C@@H](CCC(N)=O)C(=O)N[C@H](C(=O)O)C(C)C [Peptide 1419.55]
21 | 5.3 nM | 0.7 nM |  | 10 nM | 1700 nM | H-LLSNDMCARV-OH [Peptide 1418.53]
